Read-outs that look alike come from different tables or passages of the source.
Assays:
[1] = background statement; cited from earlier work
Petunia flower = test: Petunia cut flower vase life after ethylene; assay type: in vivo
Procedure: Each kind of the model plants was exposed to different concentrations of CPAS in an aqueous solution for 6-18 h as a pre-treatment following exposure for 24 h to different concentration of ethylene. In the case of banana and avocado fruits, the peel was brushed with different concentrations of CPAS aqueous solution, in the presence of commercially available Tween 20 surfactant (0.025%) as pre-ethylene treatment, and the delay in days elapsed until color breakdown (from green to yellow in banana—Table 1, FIG. 4; and from green to black in avocado—Table 1, FIG. 6) over air control was recorded as a criterion of the efficiency of the ethylene antagonist. In the case of peach fruit, the surfactant BAS 70 (generously supplied by BASF, Germany) was used. The results were recorded after incubation of 2-4 days in controlled conditions (Table 1, FIG. 11). When using cut flower models (FIGS. 1-3) CPAS aqueous solutions±surfactants was applied by loading either the cut flower or the isolated petals for 18 h in CPAS aqueous solutions prior to ethylene treatment. The number of days of the delay of senescence of the tested plant materials over water control was recorded, by following the visual wilting of the flowers. […] CPAS in aqueous solution, was either pre-treated by direct loading of the treatment solutions into the proximal side of the explant for 17 h, or by dipping the whole explant in the tested solutions for 30 to 60 sec in the presence of commercially available Tween 20 TM surfactant (0.025%. In all cases, a significant delaying action of ethylene-induced responses, was recorded in all the plant systems examined (Table 1, FIG. 7). In further examples, the concentrations of the CPAS aqueous solutions were used in the range of the results obtained in the above experiment. […]

Carnation flower = test: Carnation cut flower vase life; assay type: in vivo
Procedure: (§1) Each kind of the model plants was exposed to different concentrations of CPAS in an aqueous solution for 6-18 h as a pre-treatment following exposure for 24 h to different concentration of ethylene. In the case of banana and avocado fruits, the peel was brushed with different concentrations of CPAS aqueous solution, in the presence of commercially available Tween 20 surfactant (0.025%) as pre-ethylene treatment, and the delay in days elapsed until color breakdown (from green to yellow in banana—Table 1, FIG. 4; and from green to black in avocado—Table 1, FIG. 6) over air control was recorded as a criterion of the efficiency of the ethylene antagonist. In the case of peach fruit, the surfactant BAS 70 (generously supplied by BASF, Germany) was used. The results were recorded after incubation of 2-4 days in controlled conditions (Table 1, FIG. 11). When using cut flower models (FIGS. 1-3) CPAS aqueous solutions±surfactants was applied by loading either the cut flower or the isolated petals for 18 h in CPAS aqueous solutions prior to ethylene treatment. The number of days of the delay of senescence of the tested plant materials over water control was recorded, by following the visual wilting of the flowers. Tomato seedlings were sprayed with CPAS aqueous solutions in the presence of commercial available ‘Kinetic’ organo-silicone surfactant blend, kept for calibration in a growth chamber for 8-10 hr before spraying with CPAS solution or before loading CPSA by excised seedlings via their lower stem cut surface (Table 1, FIG. 10) in order to antagonize ethylene-induced epinasty of leaf petioles (Table 1, FIGS. 8-9). In the case of citrus leaf explants, abscission was tested at the laminar abscission zone. CPAS in aqueous solution, was either pre-treated by direct loading of the treatment solutions into the proximal side of the explant for 17 h, or by dipping the whole explant in the tested solutions for 30 to 60 sec in the presence of commercially available Tween 20 TM surfactant (0.025%. In all cases, a significant delaying action of ethylene-induced responses, was recorded in all the plant systems examined (Table 1, FIG. 7). In further examples, the concentrations of the CPAS aqueous solutions were used in the range of the results obtained in the above experiment.
Carnation cut flowers treated by dipping cut surface for 18 hr in aqueous solution containing 8 μg mL^−1 of CPAS. Untreated flowers were held in water. After treatment all flowers are kept in water at 22° C. and 80% RH under continuous fluorescent light for assessment of their vase life. Photo was taken on day 14.

Avocado fruit = test: Ethylene-induced ripening of 'Hass' avocado fruit (peel color, firmness, peduncle abscission); assay type: in vivo
Procedure: as §1
“Hass” avocado fruits with long peduncles were loaded with water soluble CPAS by dipping the peduncle cut surface for 30 hr in aqueous solution containing 100 μg/mL^−1 of CPAS. The untreated fruits with peduncles immersed in water. After the treatment with CPAS all fruits were exposed for 24 hr to the ethylene (250 μL L^−1). Afterwards the fruits were held at 24° C. and 92% RH for assessment their maturity parameters (peel color change and pulp firmness) and abscission of the peduncle. Photos were taken on day 5 after treatment (untreated—FIG. 6A, treated FIG. 6B).

Peach fruit = Peach fruit firmness / shelf life after spraying; assay type: in vivo
Procedure: Each kind of the model plants was exposed to different concentrations of CPAS in an aqueous solution for 6-18 h as a pre-treatment following exposure for 24 h to different concentration of ethylene. In the case of banana and avocado fruits, the peel was brushed with different concentrations of CPAS aqueous solution, in the presence of commercially available Tween 20 surfactant (0.025%) as pre-ethylene treatment, and the delay in days elapsed until color breakdown (from green to yellow in banana—Table 1, FIG. 4; and from green to black in avocado—Table 1, FIG. 6) over air control was recorded as a criterion of the efficiency of the ethylene antagonist. In the case of peach fruit, the surfactant BAS 70 (generously supplied by BASF, Germany) was used. The results were recorded after incubation of 2-4 days in controlled conditions (Table 1, FIG. 11). […] The number of days of the delay of senescence of the tested plant materials over water control was recorded, by following the visual wilting of the flowers. […] CPAS in aqueous solution, was either pre-treated by direct loading of the treatment solutions into the proximal side of the explant for 17 h, or by dipping the whole explant in the tested solutions for 30 to 60 sec in the presence of commercially available Tween 20 TM surfactant (0.025%. In all cases, a significant delaying action of ethylene-induced responses, was recorded in all the plant systems examined (Table 1, FIG. 7). In further examples, the concentrations of the CPAS aqueous solutions were used in the range of the results obtained in the above experiment.
Peach fruits were harvested and brought to the lab and immediately sprayed with different concentrations of CPAS solution (K-phosphate buffer, 20 mM, and 0.1% organo-silicone surfactant, namely BAS 90370S by BASF Germany), and kept at 22° C. and 90% humidity for up to 4 days. […] Firmness was recorded by a penetrometer (chatillon, using a disc of 8 mm diameter), after removing a 15 mm square peel strip in order to allow measuring the firmness directly on the flesh of the fruit.

[2] = Solubility and stability in water; assay type: physicochemical
Tomato leaf petiole = test: Ethylene-induced epinasty of tomato leaf petioles; assay type: in vivo; design: key to Protection (effect grade): + = weak effect; ++ = medium effect; +++ = strong effect; settings: ethylene treatment +
Procedure: as §1
For the spraying experiment (FIG. 8) tomato plants from green house (3 weeks old) were brought for calibration in a growth chamber (8-10 hr, at 22° C. and 80% RH, under continuous fluorescent light). […]
In a second experiment the changes of the degree of the petiole from the branch, that expresses the epinastic response, was calculated (FIG. 9). […]

Banana fruit = test: Ethylene-induced ripening of green banana fruit (peel color, firmness); assay type: in vivo
Procedure: as §1
Banana fruits were treated by brushing with aqueous solution of water soluble CPAS (200 μg mL^−1). After 18 hr all treated and untreated fruits were exposed to ethylene (300 μL^−1) to hasten ripening. All fruits were ventilated and held in air at 22° C. and 92% RH for assessment of their ripening value. Photos were taken on day 12 (untreated—FIG. 4A, treated FIG. 4B).
Additionally, banana fruits were treated by brushing with aqueous solution of CPAS ([…], and commercially available surfactant Tween 20 [0.025%]) and after 18 hr were exposed to ethylene (300 μL/L^−1) for 24 hr to hasten ripening. Fruits were kept at 24° C. and 92% RH. The fruits kept in air and treated by CPAS only served as comparative ones. Results were collected on day 7 (FIG. 5A).

Citrus leaf explants = test: Abscission of citrus leaf explants; assay type: in vivo; settings: for Minimum apparent concentration / Protection time (days over control): Citrus leaf abscission, ethylene treatment +
Procedure: as §1
The application of water soluble CPAS to citrus leaf explants was studied under air, antagonizing endogenous ethylene-induced abscission, comparing two methods of applications; either by dipping their petiole cut surfaces for 6 h in CPAS aqueous solution, or by dipping the whole explants for 30 sec. in the same treatment solution plus or minus a surfactant. In this experiment Tween-20 (0.025%) was chosen as surfactant, but any un-ionic surfactant may be chosen. The experiment indicates, as expected, that surfactants improve the penetration into plant tissues. However, if application is preferred via a cut surface like with cut flowers, there is no need to add a surfactant to the treatment solution (FIG. 7).
FIG. 7 represents a set of three figures, wherein explants are loaded with CPAS by dipping their petiole cut surfaces for 6 h in CPAS aqueous solution (A); dipped for 30 sec. in the same treatment solution (B); and treated as in B, but including Tween-20 [0.025%] (C).

Carnation flower petal = test: Ethylene-induced senescence of isolated carnation petals; assay type: in vivo
Procedure: as §1
The following test was designed to further establish the ability of water soluble CPAS in aqueous solution to delay the ethylene-induced senescence of isolated carnation petals. The experiment was carried out in a growth chamber to ensure optimal environmental conditions (light, temperature and relative humidity). Carnation petals were loaded with CPAS by dipping their cut surface for 18 hr in aqueous solution containing 81 μg mL^−1 of CPAS. Untreated petals that were held in water. […]

[3] = Petunia flower, vase life, loading, ethylene treatment +
[4] = Carnation flower, vase life, loading, ethylene treatment −
[5] = Avocado fruit, peel color, loading, ethylene treatment +
[6] = avocado, 100 μg/mL loading via peduncle 30 hr, ethylene 250 μL L^−1 24 hr
[7] = Peach fruit, firmness, spraying, ethylene treatment −
[8] = Banana fruit, peel color, brushing, ethylene treatment +
[9] = Carnation flower petal, senescence, loading, ethylene treatment +

Compound: CC1=CC1 [1-MCP, 1-methylcyclopropene]
- Solubility in water [1]: insolubility in water

Compound: O=C([O-])CCC1=CC1.[Na+] [CPAS, cyclopropyl-1-enyl-propanoic acid sodium salt]
- Minimum apparent concentration (Petunia flower; [3]): 98 µg/mL
- Protection time (days over control) (Petunia flower; [3]): 17 days
- Prolonging the vase-life of petunia cut flowers (Petunia flower; summary statement): ≥ 14 days
- Longevity of carnation cut flowers during vase life (Carnation flower; 8 μg mL^−1 dipping cut surface 18 hr, day 14, vs untreated): longevity increase
- Minimum apparent concentration (Carnation flower; [4]): 0.8 µg/mL
- Protection time (days over control) (Carnation flower; [4]): 10 days
- Prolonging the vase-life of carnation cut flowers (Carnation flower; summary statement): ≥ 14 days
- Minimum apparent concentration (Avocado fruit; [5]): 100 µg/mL
- Protection time (days over control) (Avocado fruit; [5]): 5 days
- Fruit softening (Avocado fruit; [6]): a little delaying effect
- Peduncle abscission (Avocado fruit; [6]): significantly delayed
- Skin color development (Avocado fruit; [6]): significantly delayed
- Delay of color change of 'Hass' avocado fruit (Avocado fruit; summary statement): ≥ 5 days
- Minimum apparent concentration (Peach fruit; [7]): 10 µg/mL
- Protection time (days over control) (Peach fruit; [7]): 4 days
- Shelf life of climacteric fruit (peach) (Peach fruit; spraying with surfactant, 22° C., up to 4 days): expand the shelf life
- Solubility in water [2]: soluble
- Stability in water [2]: stable in water
- Minimum apparent concentration (Tomato leaf petiole; loading): 9 µg/mL
- Protection (effect grade) (Tomato leaf petiole; loading): *+++
- Minimum apparent concentration (Tomato leaf petiole; spraying): 160 µg/mL
- Protection (effect grade) (Tomato leaf petiole; spraying): *+++
- Minimum apparent concentration (Banana fruit; [8]): 200 µg/mL
- Protection time (days over control) (Banana fruit; [8]): 6 days
- Delaying the decrease in fruit firmness (Banana fruit; banana, 1000 μg mL^−1 brushing, ethylene 24 hr): ineffective
- Delay of color break of the fruit (Banana fruit; banana, brushing, ethylene, effective at the higher concentrations): significantly delayed
- Delay of banana peel de-greening (Banana fruit; summary statement): ≥ 12 days
- Minimum apparent concentration (Citrus leaf explants; dipping): 42 µg/mL
- Protection time (days over control) (Citrus leaf explants; dipping): 2 days
- Minimum apparent concentration (Citrus leaf explants; loading): 32 µg/mL
- Protection time (days over control) (Citrus leaf explants; loading): 7 days
- Delay of abscission of citrus leaf explants (Citrus leaf explants; summary statement): ≥ 7 days
- Ethylene antagonistic effect on petal senescence (Carnation flower petal; 81 μg mL^−1 loading 18 hr, ethylene 5 μl L^−1 24 hr, measured after 6 days): highly significant
- Minimum apparent concentration (Carnation flower petal; [9]): 81 µg/mL
- Protection time (days over control) (Carnation flower petal; [9]): 11 days
- Toxic symptoms (Carnation flower petal; carnation petals, 81 μg mL^−1 loading 18 hr): No toxic symptoms were observed

Source: patent US9023761B2, “Compositions and methods for blocking ethylene response in plants using 3-cyclopropyl-1-enyl-propanoic acid salt” (Yissum Research Development Company of the Hebrew …, priority 2007, dated 2015)
